This is an account of results in PubChem BioAssay (NCI).

What all share (test): NCI tumour cell line growth inhibition, 48 h
The test system of assay [1] is UACC-257 melanoma.
The test system of assay [2] is UACC-62 melanoma.
Assay [3] concerns ACHN renal.
For assay [4], the system named is K-562 leukemia.
Assay [5] relates to SK-MEL-2 melanoma.
Assay [6] concerns HCT-15 colon.
Assay [7] relates to NCI-H460 lung.
In assay [8] the test system is OVCAR-8 ovarian.
The test system of assay [9] is MCF7 breast.
Assay [10] deals with MDA-MB-435.

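How tested: cells in 96-well plates exposed to compound for 48 hours at five concentrations. GI50: concentration for 50% inhibition of growth. TGI marks complete inhibition of growth.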 Where a SMILES comes first, the peptide text is derived from it. The star is where a group is joined. Boc = CC(C)(C)OC(=O)* Some results are limits rather than exact numbers.

Turning to `O=C1c2ccccc2C(=O)c2c1ccc1c2N=C(c2ccc(F)cc2)CC(c2ccc(Cl)c(Cl)c2)N1` (stereo not drawn), the TGI in [1] was found to be 50 µM; in assay [2] it was 25.7 µM; in assay [3] it was 27.8 µM; in [4], 33.5 µM; in assay [5] it was 29.3 µM; in assay [6], 19.8 µM. In addition, the TGI in assay [7] came to 43 µM; in assay [8], 26.6 µM.
Take `Cc1ccc(S(=O)(=O)NC(=O)NCCC(=O)O)cc1`: the TGI in assay [1], in [2], in assay [9], in [3], in assay [4] and in assay [5] was over 100 µM throughout. For the same compound, the TGI in [6], in assay [7] and in assay [8] was over 100 µM throughout.
`C[C@@H]1C[C@]2(C[C@@H](C)[C@H]3C(C[C@@]4(C)CCC[C@@H]5C6=C[C@H](CCC34C)OC6=CC(=O)OC5(C)C)O2)OC1=O` (stereo partly drawn): the TGI in [1], in [2], in assay [9], in [4], in assay [5] and in [6] was over 51.5 µM each time. In addition, the TGI in [7] and in [8] was over 51.5 µM in each case.
Turning to `Cc1cc(N=Cc2c(CO)cnc(C)c2O)c(N=Cc2c(CO)cnc(C)c2O)cc1C.[Zn]`, the TGI in assay [1], in assay [2], in assay [9], in assay [3], in assay [10] and in assay [5] was over 100 µM each time. Besides, the TGI in assay [6], in assay [7] and in [8] was over 100 µM in each case.
Turning to `CCOC(=O)c1c2c(n(-c3ccc(OC)cc3)c1C)C(=O)C(=O)c1ccccc1-2`, the TGI was 1.11 µM in assay [1]; 3.28 µM in assay [2]; 6.24 µM in assay [9]; 2.36 µM in assay [3]; 0.351 µM in assay [10]; over 21.8 µM in [5]. In addition, the figures for the TGI in [6], in [7] and in assay [8] were 8.13 µM, 5.36 µM and 2.76 µM, respectively.
For `COc1ccc(C[C@H](N)C(=O)N2C[C@H](CO)C[C@H](n3ccc(=O)[nH]c3=O)C2)cc1`, the TGI in assay [2], in [3], in assay [4], in assay [5], in assay [6] and in assay [7] was over 100 µM in each case. Also, in [8], the TGI was over 100 µM.
As for `COC(=O)C(Cc1c[nH]c2ccccc12)NC(=O)C(Cc1c[nH]c2ccccc12)NC(=O)C(Cc1c[nH]c2ccccc12)NC(=O)C(Cc1c[nH]c2ccccc12)NC(=O)OC(C)(C)C` (stereo not drawn) (Boc-WWWW-OMe; configuration not given here), the TGI is over 100 µM in assay [1]; 38.4 µM in assay [2]; 0.0884 µM in [9]; over 100 µM in [3]; over 100 µM in [10]; over 100 µM in assay [4]. Also, the TGI in assay [6], in [7] and in assay [8] was over 100 µM each time.
In the case of `S=C1C(=Nc2ccccc2)N(c2ccccc2)/C(=N\c2ccccn2)N1c1ccccc1`, the TGI in [1] is 27.3 µM; in assay [2] it was 17.1 µM; in [3], 15.9 µM; in assay [10] it was 28.5 µM; in assay [4], over 100 µM; in assay [5] it was 24.6 µM. The values for the TGI in [6], in assay [7] and in [8] were 27.7 µM, 27 µM and 27.5 µM, respectively.
With `CCOC(=O)c1c2c(n3ccc(NC(=O)OC(C)(C)C)cc13)C(=O)c1ncccc1C2=O`, the GI50 was 0.265 µM in assay [1]; 0.138 µM in assay [2]; 0.0174 µM in assay [9]; 0.44 µM in [5]; 0.0195 µM in [6]; 0.0273 µM in assay [7]. In addition, the GI50 in assay [8] was 0.148 µM. The TGI was found to be 0.919 µM in [1]; 0.639 µM in assay [2]; 0.202 µM in assay [9]; 9.24 µM in assay [5]; 1.49 µM in assay [6]; 0.123 µM in assay [7]. This compound had a TGI in assay [8] of 2.09 µM.
In the case of `O=C1CCCC2=C1C(c1ccc3c(c1)OCO3)Nc1ccc3ccccc3c12` (stereo not drawn), the TGI was over 100 µM in assay [1]; over 100 µM in assay [2]; over 100 µM in [9]; 65.7 µM in [3]; over 100 µM in [10]; over 100 µM in assay [5]. Besides, the TGI in assay [6], in [7] and in [8] was over 100 µM throughout.
In the case of `COC(=O)c1nc(-c2ccc3c(n2)C(=O)C(N)=C(OC)C3=O)c(N)c(-c2ccc(OC)c(OC)c2O)c1C`, the TGI in assay [1] worked out at 2.09 µM; in assay [2] it was 1.27 µM; in assay [9], 1.66 µM; in [4] it was 5.63 µM; in [5], 3.26 µM; in assay [6], 2.68 µM.
Take `CC(=NCCN(CCN=C(C)c1c(O)cc(C)oc1=O)CCN=C(C)c1c(O)cc(C)oc1=O)c1c(O)cc(C)oc1=O`: the TGI in assay [1], in assay [9], in [3], in assay [10], in assay [4] and in [6] was over 100 µM in each case. Further, the TGI in assay [7] and in assay [8] was over 100 µM throughout.
`COc1ccc(C[C@H](N)C(=O)N2C[C@H](CO)C[C@H](n3cnc4c(N(C)C)ncnc43)C2)cc1`: the TGI in assay [2], in [3], in assay [4], in [5], in [6] and in assay [7] was over 100 µM each time. Moreover, the TGI in assay [8] was over 100 µM.
Regarding `CC(C)(C)OC(=O)NC(Cc1ccc(O)cn1)C(N)=O` (stereo not drawn), the TGI in [1], in assay [9], in assay [3], in assay [10], in assay [6] and in assay [7] was over 100 µM each time. The same compound returned a TGI in assay [8] of over 100 µM.
`c1cc(C[S+]2CCCC2)ccc1C[S+]1CCCC1`: the TGI in assay [1], in [2], in assay [9], in [3], in assay [10] and in [4] was over 100 µM throughout. Moreover, the TGI in [6], in assay [7] and in assay [8] was over 100 µM in each case.
